Entries after “also recorded” stand apart in the source; their conditions may differ.
Columns and labels:
Corneal epithelial cells [1] = test: Lipid production in corneal epithelial cells, dilutions of 3 mg/ml formulation, Oil Red O (Example 6); format: cell-based; conditions: ninth day
Method: Corneal epithelial cells were cultured in vitro and treated with 0.03 mg/ml and other dilutions of a 3 mg/ml formulation of Spironolactone (100× (0.03 mg/ml), 200× (0.015 mg/ml), 500× (0.006 mg/ml), and 1000× (0.003 mg/mI)). The corneal epithelial cells were cultured in vitro to about 10-20% confluence. The cell medium with added spironolactone was changed every 2-3 days. On the ninth day, the cells were stained for lipids with Oil Red O.

Corneal epithelial cells [2] = test: In vitro toxicity / cell morphology in corneal epithelial cells (Example 7); format: cell-based
Method: Corneal epithelial cells were cultured in vitro to about 30% confluence and treated with various dilutions of a 0.025 mg/mL spironolactone eye drop formulation (i.e. 50×, 100×, 500×, 1000×, and 5000×, corresponding to 0.0005 mg/ml, 0.00025 mg/ml, 0.00005 mg/ml, 0.000025 mg/ml, and 0.000005 mg/ml). The cell medium with spironolactone was changed every two days. On the seventh day, the cells were stained for lipids with Oil Red O.
Toxicity to cells was also taken into account. Toxicity in the context of this disclosure refers to any amount of cell death upon exposure to the composition. Little to no toxicity or relatively no toxicity refers to some amount of cell death to no cell death upon exposure to the composition. Alternatively or additionally, the morphology should look phenotypically normal for the cells. Toxicity can be measured quantitatively or qualitatively, in vivo or in vitro. Standard assays, such as an LDH (lactate dehydrogenase) assay, can be used to quantify toxicity of the compositions and to determine a TC50 concentration, i.e., a concentration that results in cell death for 50% of the cells upon exposure of the cells to that concentration. […] As such, a concentration of 0.025 mg/cc or lower appears to be safe. […] Compositions with lower amounts of active agent (e.g., 0.0000025 mg/cc) may be useful for maintaining a patient's condition, without subjecting the patient to long-term toxicity, for example, once the patient has been stabilized by treatment for some amount of time with a higher concentration.

ELOVL4 gene expression = test: RT-PCR of ELOVL4 gene expression in HTCE cells (Example 9); format: cell-based, Human; conditions: 7th day; for ELOVL4 gene expression, induction: normalized
Method: HTCE cells were cultured in 6 well plates and grown to about 30% confluence. The cells were then treated with different dilutions of a 0.025 mg/ml Spironolactone eye drop formulation (i.e. 50×, 100×, 500×, 1000×, and 5000×, corresponding to 0.0005 mg/ml, 0.00025 mg/ml, 0.00005 mg/ml, 0.000025 mg/ml, and 0.000005 mg/ml). The medium with different concentrations of Spironolactone was changed every 2 days. On the 7th day, the cells were collected, and the RNA was extracted and subject to RT-PCR analysis for gene expression of ELOVL4, an enzyme involved in the biosynthesis of fatty acids (particularly very long chain fatty acids (VLCFAs)).

[3] = Solubility of spironolactone; format: physicochemical; conditions: with the help of Pluronic F127
Method: The present inventors were able to get spironolactone into solution at 0.015 mg/ml with the help of Pluronic F127.

Structure (SMILES): CC(=O)SC1CC2=CC(=O)CCC2(C)C2CCC3(C)C(CCC34CCC(=O)O4)C12 (stereo not drawn) [spironolactone, 7α-acetylthio-3-oxo-17α-pregn-4-ene-21,17-carbolactone]
- lipid production (Oil Red O) (Corneal epithelial cells [1]; 0.006 mg/ml (500× dilution)): enhanced lipid production
- lipid production (Oil Red O) (Corneal epithelial cells [1]; 0.015 mg/ml (200× dilution)): enhanced lipid production
- lipid production (Oil Red O) (Corneal epithelial cells [1]; 0.03 mg/ml (100× dilution)): enhanced lipid production
- in vitro toxicity (Corneal epithelial cells [2]; 0.025 mg/ml): some in vitro toxicity
- in vitro toxicity / cell morphology (Corneal epithelial cells [2]; 100× dilution (0.00025 mg/ml)): non confluence and some relative toxicity
- in vitro toxicity / cell morphology (Corneal epithelial cells [2]; 500× dilution (0.00005 mg/ml)): confluent nontoxic cell morphology
- in vitro toxicity / cell morphology (Corneal epithelial cells [2]; 1000× dilution (0.000025 mg/ml)): no in vitro toxicity; also recorded: confluent nontoxic cell morphology
- in vitro toxicity / cell morphology (Corneal epithelial cells [2]; 5000× dilution (0.000005 mg/ml)): confluent nontoxic cell morphology
- ELOVL4 gene expression, induction (ELOVL4 gene expression; 0.00025 mg/ml (100× dilution)): approximately 2 fold
- ELOVL4 gene expression, induction (ELOVL4 gene expression; 0.0005 mg/ml (50× dilution)): approximately 4.5 fold
- ELOVL4 gene expression (ELOVL4 gene expression; remaining treatment groups (0.00005, 0.000025, 0.000005 mg/ml)): no change relative to control
- concentration brought into solution [3]: 15000 ng/mL

— US20190328753A1, “COMPOSITIONS AND METHODS FOR TREATING OCULAR DISEASES” (priority 2015, published 2019)
